Test results published in patent US20230027066A1 (Urovant Sciences GmbH, priority 2019, published 2023).

System: men and women with overactive bladder
Assay: Phase 3 study of vibegron 75 mg vs placebo and tolterodine ER 4 mg, 12 weeks, efficacy (voiding and urine volume diary)
Type: in vivo, human
Details: for Patients with at Least 75% Reduction in Total Incontinence, Adjusted (%) / Patients with at Least 75% Reduction in Total Incontinence, Adjusted n / Patients with at Least 75% Reduction in Total Incontinence, Unadjusted (%) / Patients with at Least 75% Reduction in Total Incontinence, Unadjusted n / Total Incontinence 75% responders, Active - Placebo CMH Difference: FAS-I
Protocol: Enrollment of patients included individuals with OAB Wet (those with UUI, the involuntary loss of urine accompanied by urgency) and OAB Dry (those without UUI). A total of 1,518 patients were randomized across 215 study sites into one of three groups for a 12-week treatment period.
The study consisted of a Screening Period (1 to 5 weeks), a single-blind Run-in Period (2 weeks), a randomized double-blind Treatment Period (12 weeks), and a Follow-up Period (4 weeks).
Tolterodine ER 4 mg was the active control. […] Between the Baseline and Week 12 Visits, patients had study assessments at Week 4 and Week 8.
The Patient Voiding Diary was used by participants (via the eDiary or paper Diary) to record the frequency of daily OAB symptoms including all micturitions, urgency, incontinence, and main reason for incontinence by selecting the respective box for each symptom occurring during the course of a given day and night.
Urine volume data were collected separately by patients using the Urine Volume component of the eDiary, or the paper Urine Volume Chart. The Urine Volume Chart is a tool used in clinical practice and clinical investigation to assess voiding functions over a 24-hour period and is regarded as a useful instrument in the investigation of patients with voiding symptoms. Urine volume may be collected during any one (1) of the 7 Diary Days prior to the visit, and it should be recorded for ˜24 hours starting from the time the patient gets up for the day and continues until the time the patient gets up for the day on the next day.
For the purpose of this study, the number of micturitions was defined as the number of times a patient has voided in the toilet as indicated on the Patient Voiding Diary. Average daily micturitions were calculated using the daily entries in the Patient Voiding Diary, which was completed over the 7 days prior to each study visit. Average daily number of micturitions were calculated as the total number of micturitions that occurred on a Complete Diary Day divided by the number of Complete Diary Days in the Patient Voiding Diary. A complete diary day required confirmation by the patient in the Patient Voiding Diary that all voids and leakages had been recorded for the diary day. Baseline was defined as the average number of micturitions occurring during the last evaluable diary prior to the Baseline Visit.
The number of UUI episodes was defined as the number of times a patient had checked “urge” as the reason for accidental urine leakage. Average daily UUI episodes at each study visit were calculated in the same manner as described above for the micturition endpoint. The UUI endpoint were analyzed using only OAB Wet patients.
For the analysis of the co-primary endpoints (change from baseline in average number of daily micturitions at Week 12 and change from baseline in average number of daily urge urinary incontinence episodes at Week 12, and placebo adjustment of each), a mixed model for repeated measure (MMRM) with restricted maximum likelihood estimation was used. This model corrects for dropout and accounts for the fact that measurements taken on the same patient over time tend to be correlated by using all available information on patients within the same covariate set to derive an estimate of the treatment effect for a dropout-free population. The analysis model for each efficacy endpoint includes terms for treatment, visit, OAB Type (Wet vs Dry), Sex (Female vs Male), Region (US vs Rest of World), baseline score, and interaction of visit by treatment.
Primary inferences were drawn from treatment differences for the changes from baseline derived from the MMRM models at Week 12. As part of secondary objectives, the treatment differences for each post baseline visit were also derived using the same MMRM model. […]

[1] = subjects with prior ACH use, vibegron 75 mg, Week 12
[2] = vibegron 75 mg or tolterodine ER 4 mg
[3] = vibegron 75 mg or tolterodine ER 4 mg once daily
[4] = vibegron 75 mg or tolterodine ER 4 mg once daily, OAB Wet
[5] = vibegron 75 mg or tolterodine ER 4 mg, OAB Wet

For `O=C(Nc1ccc(C[C@@H]2CC[C@H]([C@H](O)c3ccccc3)N2)cc1)[C@@H]1CCc2nccc(=O)n21` [Vibegron, (6S)-N-[4-[[(2S,5R)−5-[(R)-hydroxy(phenyl)methyl]pyrrolidin−2-yl]methyl]phenyl]−4-oxo−7,8-dihydro−6H-pyrrolo[1,2-a]pyrimidine−6-carboxamide], the “UUI Episodes, change at Week 12, mean (SD)” value (Week 12, subpopulation Age ≥65 years) was −1.94 (2.50), the “Daily Urgency, change at Week 12” value (Week 12, subpopulation Age ≥65 years, posthoc analysis) was −2.7 and the “Micturitions: Week 12 CFB Mean (descriptive statistics)” value (Week 12, ≥65 yrs) was −2.10. The “Patients with at Least 75% Reduction in Total Incontinence, Adjusted (%)” value (baseline to Week 2) was 22.1%, the “Patients with at Least 75% Reduction in Total Incontinence, Adjusted n” value (baseline to Week 2) was 89 and the “Patients with at Least 75% Reduction in Total Incontinence, Unadjusted (%)” value (baseline to Week 2) was 23.6%. The “Patients with at Least 75% Reduction in Total Incontinence, Unadjusted n” value (baseline to Week 2) was 95, the “Total Incontinence 75% responders, Active - Placebo CMH Difference” value (baseline to Week 2) was 9.3 and the “Patients with at Least 75% Reduction in Total Incontinence, Adjusted (%)” value (baseline to Week 4) was 31.5%. The “Patients with at Least 75% Reduction in Total Incontinence, Adjusted n” value (baseline to Week 4) was 127, the “Patients with at Least 75% Reduction in Total Incontinence, Unadjusted (%)” value (baseline to Week 4) was 34.5% and the “Patients with at Least 75% Reduction in Total Incontinence, Unadjusted n” value (baseline to Week 4) was 139. The “Total Incontinence 75% responders, Active - Placebo CMH Difference” value (baseline to Week 4) was 11.8, the “Patients with at Least 75% Reduction in Total Incontinence, Adjusted (%)” value (baseline to Week 8) was 42.0% and the “Patients with at Least 75% Reduction in Total Incontinence, Adjusted n” value (baseline to Week 8) was 169. The “Patients with at Least 75% Reduction in Total Incontinence, Unadjusted (%)” value (baseline to Week 8) was 43.7%, the “Patients with at Least 75% Reduction in Total Incontinence, Unadjusted n” value (baseline to Week 8) was 176 and the “Total Incontinence 75% responders, Active - Placebo CMH Difference” value (baseline to Week 8) was 14.7. The “Patients with at Least 75% Reduction in Total Incontinence, Adjusted (%)” value (baseline to Week 12) was 47.3%, the “Patients with at Least 75% Reduction in Total Incontinence, Adjusted n” value (baseline to Week 12) was 191 and the “Patients with at Least 75% Reduction in Total Incontinence, Unadjusted (%)” value (baseline to Week 12) was 50.1%. The “Patients with at Least 75% Reduction in Total Incontinence, Unadjusted n” value (baseline to Week 12) was 202, the “Total Incontinence 75% responders, Active - Placebo CMH Difference” value (baseline to Week 12) was 15.8 and the “UUI, Week 12 LS mean change from baseline (placebo adjusted) (95% CI)” value (“UUI, Week 12 LS mean change … (95% CI)” for short) (subgroup Age <65 years, vibegron 75 mg or tolterodine ER 4 mg) was −0.5 (−0.9 to −0.1). The “UUI, Week 12 LS mean change … (95% CI)” value (subgroup Age ≥65 years, vibegron 75 mg or tolterodine ER 4 mg) was −0.8 (−1.2 to −0.3), the “UUI, Week 12 LS mean change … (95% CI)” value (subgroup Age ≥75 years (posthoc analysis), vibegron 75 mg or tolterodine ER 4 mg) was −1.6 (−2.4 to −0.8) and the “UUI, Week 12 LS mean change … (95% CI)” value (subgroup Females, vibegron 75 mg or tolterodine ER 4 mg) was −0.7 (−1.0 to −0.4). For the same molecule, the “UUI, Week 12 LS mean change … (95% CI)” value (subgroup Males, vibegron 75 mg or tolterodine ER 4 mg) was −0.1 (−0.9 to 0.8), the “UUI, Week 12 LS mean change … (95% CI)” value (subgroup Non-White, vibegron 75 mg or tolterodine ER 4 mg) was 0.0 (−0.6 to 0.7) and the “UUI, Week 12 LS mean change … (95% CI)” value (subgroup Region: Non-US, vibegron 75 mg or tolterodine ER 4 mg) was −1.1 (−1.8 to −0.3). For the same molecule, the “UUI, Week 12 LS mean change … (95% CI)” value (subgroup Region: US, vibegron 75 mg or tolterodine ER 4 mg) was −0.5 (−0.8 to −0.2), the “UUI, Week 12 LS mean change … (95% CI)” value (subgroup White, vibegron 75 mg or tolterodine ER 4 mg) was −0.8 (−1.1 to −0.4) and the “decrease in average number of UUI episodes in 24 hours, times the decrease with placebo” value [1] was “about 1.75 times”. For the same molecule, the “decrease in average number of micturitions in 24 hours, more than the decrease with placebo” value [1] was “about 0.7”, the “decrease in average number of micturitions in 24 hours, more than the decrease with placebo” value (subjects with prior B3 use, vibegron 75 mg, Week 12) was “about 2.9” and the “total daily incontinence, placebo adjusted, week 2” value (vibegron 75 mg) was −0.7. The “average volume voided, placebo-adjusted mean change from baseline, week 12” value [2] was 21.2 mL, the “placebo-adjusted mean total daily incontinence episodes, week 12” value [2] was −0.7 episodes and the “proportion of patients (UUI responders) with 75% or more reduction in daily UUI episodes, week 12” value [2] was 49.3%. For the same molecule, the “Micturitions, active-placebo LS mean difference, Week 2” value [3] was −0.5, the “Micturitions, active-placebo LS mean difference, Week 4” value [3] was −0.6 and the “Micturitions, active-placebo LS mean difference, Week 8” value [3] was −0.6. For the same molecule, the “Micturitions, active-placebo LS mean difference, Week 12” value [3] was −0.5, the “Micturitions, average daily number, Week 2 mean” value [3] was 10.18 and the “Micturitions, average daily number, Week 4 mean” value [3] was 9.84. For the same molecule, the “Micturitions, average daily number, Week 8 mean” value [3] was 9.53, the “Micturitions, average daily number, Week 12 mean” value [3] was 9.32 and the “Micturitions, change from baseline LS mean, Week 2” value [3] was −0.8. For the same molecule, the “Micturitions, change from baseline LS mean, Week 4” value [3] was −1.1, the “Micturitions, change from baseline LS mean, Week 8” value [3] was −1.4 and the “Micturitions, change from baseline LS mean, Week 12” value [3] was −1.8. The “UUI episodes, active-placebo LS mean difference, Week 2” value [4] was −0.6, the “UUI episodes, active-placebo LS mean difference, Week 4” value [4] was −0.7 and the “UUI episodes, active-placebo LS mean difference, Week 8” value [4] was −0.6. For the same molecule, the “UUI episodes, average daily number, Week 2 mean” value [4] was 2.03, the “UUI episodes, average daily number, Week 4 mean” value [4] was 1.77 and the “UUI episodes, average daily number, Week 8 mean” value [4] was 1.65. For the same molecule, the “UUI episodes, average daily number, Week 12 mean” value [4] was 1.46, the “UUI episodes, change from baseline LS mean, Week 2” value [4] was −1.4 and the “UUI episodes, change from baseline LS mean, Week 4” value [4] was −1.7. For the same molecule, the “UUI episodes, change from baseline LS mean, Week 8” value [4] was −1.8, the “UUI episodes, change from baseline LS mean, Week 12” value [4] was −2.0 and the “Estimated incidence of subjects with 75% decrease from baseline in UUI episodes, Week 2” value [5] was 24.3. The “Estimated incidence of subjects with 75% decrease from baseline in UUI episodes, Week 4” value [5] was 26.6, the “Estimated incidence of subjects with 75% decrease from baseline in UUI episodes, Week 8” value [5] was 41.3 and the “Estimated incidence of subjects with 75% decrease from baseline in UUI episodes, Week 12” value [5] was 52.7. For the same molecule, the “First 75% reduction in UUI episodes, Events/Censored, Week 2” value [5] was 98/305, the “First 75% reduction in UUI episodes, Events/Censored, Week 4” value [5] was 107/296 and the “First 75% reduction in UUI episodes, Events/Censored, Week 8” value [5] was 166/237. The “First 75% reduction in UUI episodes, Events/Censored, Week 12” value [5] was 210/193, the “Overall time to first 75% decrease in UUI episodes, 25th percentile” value [5] was 3.9 weeks and the “Overall time to first 75% decrease in UUI episodes, 75th percentile” value [5] was 13.1 weeks. The “Overall time to first 75% decrease in UUI episodes, median (95% CI)” value [5] was 8.4 (8.1 to 12.1) weeks, the “Time to first 75% decrease in UUI episodes, Events/Censored (overall)” value [5] was 239/164 and the “total daily incontinence, mean change from baseline (reduction)” value (vibegron 75 mg, after 12 weeks) was 2.3 episodes. The “statistically significant onset of action, reduction in urge urinary incontinence (UUI)” value (vibegron 75 mg/day, FIG. 4) was 2 weeks, the “statistically significant onset of action, reduction in micturitions” value (vibegron 75 mg/day, FIG. 5) was 2 weeks and the “statistically significant onset of action, reduction in urgency episodes” value (vibegron 75 mg/day, FIG. 6) was 2 weeks. For the same molecule, the “statistically significant onset of action, urge incontinence responder rate” value (vibegron 75 mg/day, FIG. 7) was 2 weeks, the “statistically significant onset of action, reductions in total incontinence episodes” value (vibegron 75 mg/day, FIG. 9) was 2 weeks and the “statistically significant onset of action, improvement in volume voided” value (vibegron 75 mg/day, FIG. 10) was 2 weeks.
